6 molecules from patent publication US20010007016A1, “PEPTIDE DERIVATIVES” (priority 1994, published 2001) can be followed below.

The subject of experiment [1] is Mice. Nature of the experiment: Analgesic activity by pressure stimulation method, Method B (apparatus made by Professor S. Sakurada, tail pressure in mmHg). The class given is in vivo. The following applies: for ED50: Mus musculus, read-out: ED50 (dose that induced 50 percent of % of MPE). The protocol: (§1) The analgesic activities of the peptide derivatives of the present invention were evaluated by the pressure stimulation method using one of two devices. In method A, analgesy meter Model 7,200 manufactured by UGO BASILE (Comerio, Italy) was used (units of tail pressure expressed in grams). In method B, an apparatus made by inventor Professor S. Sakurada was used (units of tail pressure expressed in mmHg). Mice were subjected to pressure stimulation at the bases of their tails at a given rate(Method A: 32 g/s; Method B: 10 mmHg/second). […] For the experiments, mice that normally responded to a given pressure of 100-200 g (Method A) or 40-50 mmHg (Method B) were used. The maximum stimulating pressure was 500 g (Method A) or 100 mmHg (Method B). Analgesic activity was calculated as percent of maximum possible effect (% of MPE) according to the equation: [formula]
(§2) Wherein Po is the pain reaction threshold before the administration of a drug; Pt is the pain reaction threshold “t” minutes after the administration of the drug; and Pc is the maximum stimulating pressure. ED5 0 values were calculated based on dose response curves as doses that induced 50 percent of % of MPE and analgesic activities of the drugs were compared. The results obtained from subcutaneous administration (s.c.; skin on the backs of the mice was used) and oral administration (p.o.) are shown in Table 3.

Experiment [2] concerns Mice. Nature of the experiment: Analgesic activity by pressure stimulation method, Method A (UGO BASILE analgesy meter Model 7,200, tail pressure in grams). The experiment is classed as in vivo. The following applies: for ED50: Mus musculus, read-out: ED50 (dose that induced 50 percent of % of MPE). As to the method:
as §1, §2

By ED50 is commonly meant the dose that gives a 50% effect, or the effect in half of the subjects. With `CN1CC[C@]23c4c5ccc(O)c4O[C@H]2[C@@H](O)C=C[C@H]3[C@H]1C5` [morphine, reference compound], the ED50 was 29.6 mg/kg in the experiment with Mice [1] (po), 4.6 mg/kg in the experiment with Mice [1] (sc), 22.2 mg/kg in the experiment on Mice [2] (po) and 3.3 mg/kg with Mice [2] (sc).
In the case of H2NC(NH)-Tyr-D-Arg-Phe-N(CH3)CH2CH2COOH, the “ED50 (dose that induced 50 percent of % of MPE)” value in the experiment on Mice [2] (p.o.) turned out to be 5.8 mg/kg; with Mice [2] (s.c.), 0.09 mg/kg.
For H2NC(NH)-Tyr-D-Arg-Phe-N(CH3)CH2COHN2, the “ED50 (dose that induced 50 percent of % of MPE)” value in the experiment with Mice [1] (s.c.) was 0.27 mg/kg.
With H2NC(NH)-Tyr-D-Arg-Phe-N(CH3)CH2COOH, the “ED50 (dose that induced 50 percent of % of MPE)” value in the experiment on Mice [1] (p.o.) was found to be 4.9 mg/kg; in the experiment on Mice [1] (s.c.), 0.13 mg/kg.
On to H2NC(NH)-Tyr-D-Arg-Phe-N(Me)2, for which, in the experiment on Mice [1] (s.c.), the “ED50 (dose that induced 50 percent of % of MPE)” value came out at 1.22 mg/kg.
Take H2NC(NH)-Tyr-D-Arg-Phe-NHCH2CH2COOH: the “ED50 (dose that induced 50 percent of % of MPE)” value amounted to 18.5 mg/kg with Mice [2] (p.o.) and 0.32 mg/kg with Mice [2] (s.c.).
